# Assay results: patent publication US8003799B2, “Picolinic acid derivatives and their use as fungicides” (Bayer SAS, priority 2000, dated 2011)
# Tests used:
# [1] = system: Erisyphe graminis f. sp. tritici; assay: In vivo test on Erisyphe graminis f. sp. tritici (powdery mildew of wheat); settings: dose of 500 g/ha; wheat plants (Audace variety) sprayed 24 hours before contamination; grading 7 to 14 days after contamination vs control plants
# Description: In Vivo Test on […] Graminis f. Sp. Tritici (Powdery Mildew of Wheat) […] Wheat plants (Audace variety) in starter cups, sown on 50/50 peat soil-pozzulana substrate and grown at 12° C., are treated at the 1-leaf stage (10 cm tall) by spraying with the aqueous suspension described above. Plants, used as controls, are treated with an aqueous solution not containing the active material. After 24 hours, the plants are contaminated by dusting them with […] graminis f. sp. tritici spores, the dusting being carried out using diseased plants. Grading is carried out 7 to 14 days after the contamination, in comparison with the control plants.
# [2] = system: Septoria tritici; assay: In vivo test on Septoria tritici (septoria disease of wheat); settings: dose of 500 g/ha; wheat plants (Scipion variety) sprayed 24 hours before contamination; grading 15 to 20 days after contamination vs control plants
# Description: In Vivo Test on Septoria Tritici (Septoria Disease of Wheat) […] Wheat plants (Scipion variety) in starter cups, sown on a 50/50 peat soil-pozzolana substrate and grown at 12° C., are treated at the 1-leaf stage (10 cm tall) by spraying with the aqueous suspension described above. Plants, used as controls, are treated with an aqueous solution not containing the active material. After 24 hours, the plants are contaminated by spraying them with an aqueous suspension of Septoria tritici spores (500,000 spores per mL). The spores are collected from a 15-day-old culture and are suspended in a nutrient solution composed of: • 1.5 g/L of gelatin • 0.5 g/L of sodium oleate • 24 g/L of PDB The contaminated wheat plants are incubated for 72 hours at about 20° C. and at 100% relative humidity, and then for 15 days at 80% relative humidity. Grading is carried out 15 to 20 days after the contamination, in comparison with the control plants.
compound,measurement,setting,value
"Nc1ccnc(C(=O)Nc2ccc(Oc3ccc(C(F)(F)F)cc3)cc2)c1O [Compound 108, 4-amino-3-hydroxy-N-para-[4-(trifluoromethyl)phenoxy]phenylpicolinamide]",good (at least 50%) or total protection,[1],at least 50%
same,good (at least 50%) protection,[2],at least 50%
